Data as given in patent US20240018480A1, “ENHANCEMENT OF EXTRACELLULAR VESICLE PRODUCTION BY LYSOSOME INHIBITOR” (ExoTop Theragnostics Inc., priority 2022, published 2024).
“Also recorded” adds a separate entry of the source.

Key:
[1] = tested on: human MSCs; test: CD63 ELISA of culture media collected after culture with stem cells (secretion of EVs); format: cell-based; settings: FIG. 3A
Experimental: (§1) Mesenchymal stem cells were seeded on the plate at a density of 5000 cells/cm^2 and the plate was placed in 5% CO2 humidified incubator. One day after the incubation, the culture media was aspirated to remove non-adherent cells and switched with a fresh media. The plate was incubated again. After further culturing for around 3 to 5 days, the culture media was aspirated and replaced by CDPF and/or lysosome inhibitor medium. The cells were cultured in the CDPF and/or lysosome inhibitor medium for 12, 24, or 48 hours. After the designated period of culturing, the culture media was collected and cell lysis buffer was immediately added to the cells on the plate. The collected media and cell lysate were each independently subjected to detection of the level of CD63 by ELISA and by qPCR, respectively.
To quantitatively compare CD63+ expression in CM cultured in various media including CCM, CDPF, and CDPF with lysosome inhibitor, enzyme-linked immunosorbent (ELISA) assays were performed.

[2] = tested on: human CD63 (hCD63) gene; test: RT-qPCR of hCD63 gene expression in MSCs cultured in different media; format: cell-based; settings: FIG. 2B
Experimental: as §1, with “˜5000” for “5000”
To compare hCD63+ expression in MSCs cultured in various media including CCM, CDPF, and CDPF with lysosome inhibitor, RT-quantitative real-time PCR (RT-qPCR) assays were performed.

[3] = tested on: human MSCs; test: Intracellular acidification of MSCs, acidic organelles stained by lysotracker red; format: cell-based; settings: MSCs in CDPF with lysosome inhibitor vs CCM and CDPF, FIG. 2A
Experimental: as §1, with “˜5000” for “5000”
Human MSCs were cultured in different media including complete culture medium (CCM), CDPF, and CDPF with lysosome inhibitor. The acidic organelles in live stem cells were stained by lysotracker red. […] Without lysosome inhibitor, the intracellular acidification was not suppressed.

[4] = tested on: fatty acid synthase (FASN); test: qPCR relative quantification (RQ) of fatty acid synthase (FASN) in MSCs; format: cell-based, human; settings: FIG. 3C
[5] = MSCs in CDPF with lysosome inhibitor, RT-qPCR

CCN(CC)CCCC(C)Nc1ccnc2cc(Cl)ccc12 (stereo not drawn) [lysosome inhibitor, chloroquine]
secretion of EVs (CD63-positive particles) from stem cells to the cultured media (in words) ([1]; Ly_Inhibitor+CDPF vs CCM and CDPF, CD63 ELISA): stimulated
EV production (CD63+ particles), times higher than MSCs cultured in CCM or in CDPF without lysosome inhibitor ([1]; MSCs in CDPF with lysosome inhibitor, CD63 ELISA of media): about 2.3 times
expression of human CD63 gene in the MSCs (in words) ([2]; CDPF with lysosome inhibitor vs CCM, CDPF, qPCR): increased; also recorded: dramatic increase
expression of hCD63+ gene, times higher than MSCs cultured in CCM [2, 5]: about 10 times
expression of hCD63+ gene, times higher than MSCs cultured in CDPF without lysosome inhibitor [2, 5]: about 5 times
intracellular acidification of human MSCs [3]: suppressed
expression of FASN, times higher than MSCs cultured in CCM ([4]; MSCs in CCM with lysosome inhibitor, RT-qPCR): about 25 times
expression of FASN, times higher than MSCs cultured in CDPF without lysosome inhibitor [4, 5]: about 5 times
gene expression of FASN (in words) ([4]; treatment with the inhibitor, qPCR RQ): drastically induced
